From article PMC2008936 (British Journal of Cancer, 1973)

Legend:
[1] = tested on: E. coli AB 2480 (uvrA recA)
[2] = microsomes
S. typhimurium TA 1530 = assay type: cell-based, Salmonella typhimurium
rat liver = conditions: in vivo; cited from earlier work
S. typhimurium his G46 = assay type: cell-based, Salmonella typhimurium
[3] = tested on: bacterial transforming DNA; conditions: cited from earlier work
S. typhimurium his C207 = assay type: cell-based, Salmonella typhimurium
Drosophila = conditions: in vivo; cited from earlier work
Neurospora = conditions: cited from earlier work
in vitro = conditions: male, Wistar, Escherichia coli (indicator bacteria); rat (liver fraction)

Compound: O=C1c2cc(O)cc(O)c2C(=O)c2c1cc1c(c2O)[C@@H]2C=CO[C@@H]2O1 [Versicolorin A, versicolorin A]
- Formation of toxic metabolites on incubation with mixed function oxidases [1]: Toxic metabolites were also formed

Compound: COc1cc2c(c3oc(=O)cc(CCO)c13)C1C=COC1O2 (centres unmarked) [Parasiticol, parasiticol]
- Formation of toxic metabolites on incubation with mixed function oxidases [1]: Toxic metabolites were also formed

Compound: OCC(S)CS (centres unmarked) [2,3-Dimercaptopropanol]
- Effect on amount of aflatoxin B1 metabolized [2]: no alteration in the amount of aflatoxin B1 metabolized
- Effect of added agent on bacterial killing by the aflatoxin B1 metabolite (S. typhimurium TA 1530): some protective action
- Inhibition of killing (fold) (S. typhimurium TA 1530): three-fold
- Survivors in the presence of dimercaptopropanol (S. typhimurium TA 1530): 42%

Compound: Cc1ccc2cc3c(ccc4ccccc43)c3c2c1CC3 [3-methylcholanthrene, reference compound]
- Effect of pretreatment of rats on amount of lethal aflatoxin B1 metabolite formed by liver [1]: did not alter the amount

Compound: N[C@@H](CS)C(=O)O [cysteine]
- Effect of added agent on bacterial killing by the aflatoxin B1 metabolite (S. typhimurium TA 1530): did not alter bacterial killing

Compound: sodium sulphide
- Effect of added agent on bacterial killing by the aflatoxin B1 metabolite (S. typhimurium TA 1530): did not alter bacterial killing

Compound: C1CCC2OC2C1 (centres unmarked) [cyclohexene oxide]
- Effect of added agent on bacterial killing by the aflatoxin B1 metabolite (S. typhimurium TA 1530): did not alter bacterial killing

Compound: c1ccc2c(c1)cc1ccc3cccc4ccc2c1c34 [benzo(a)pyrene, reference compound]
- Effect of pretreatment of rats on amount of lethal aflatoxin B1 metabolite formed by liver [1]: did not alter the amount

Compound: O=S([O-])([O-])=S.[Na+].[Na+] [sodium thiosulphate]
- Effect of added agent on bacterial killing by the aflatoxin B1 metabolite (S. typhimurium TA 1530): did not alter bacterial killing

Compound: CCC1(c2ccccc2)C(=O)NC(=O)NC1=O [Phenobarbitone, phenobarbitone, reference compound]
- Effect of pretreatment of rats on amount of lethal aflatoxin B1 metabolite formed by liver [1]: an increase was observed

Compound: aflatoxin B1
- Liver carcinogenicity (rat liver): most potent liver carcinogen known for the rat
- Mutation of the strain by the aflatoxin B1 metabolite (S. typhimurium his G46): not mutated by it
- Sensitivity of the strain to the toxic effects of the metabolite (S. typhimurium his G46): resistant to the toxic effects
- Killing activity with heat denatured liver preparation [1]: abolished all killing activity
- Mutagenicity [3]: mutagenic
- Mutation of the strain by the aflatoxin B1 metabolite (S. typhimurium his C207): not mutated by it
- Sensitivity of the strain to the toxic effects of the metabolite (S. typhimurium his C207): resistant to the toxic effects
- Mutagenicity (Drosophila): mutagenic
- Mutagenicity (Neurospora): mutagenic
- Effect of incubation at 30 C on number of bacteria killed (S. typhimurium TA 1530): a decrease in the number of bacteria killed

Compound: COc1c2c(c3oc4cccc(O)c4c(=O)c3c1OC)C1C=COC1O2 (centres unmarked) [5-methoxysterigmatocystin]
- Formation of toxic metabolites on incubation with mixed function oxidases [1]: Toxic metabolites were also formed

Compound: CSCC[C@H](N)C(=O)O [methionine]
- Effect of added agent on bacterial killing by the aflatoxin B1 metabolite (S. typhimurium TA 1530): did not alter bacterial killing

Compound: COc1cccc2oc3c4c(cc(OC)c3c(=O)c12)OC1OC=CC41 (centres unmarked) [O-methylsterigmatocystin]
- Formation of toxic metabolites on incubation with mixed function oxidases [1]: Toxic metabolites were also formed

Compound: N[C@@H](CCC(=O)N[C@@H](CS)C(=O)NCC(=O)O)C(=O)O [glutathione]
- Effect of added agent on bacterial killing by the aflatoxin B1 metabolite (S. typhimurium TA 1530): did not alter bacterial killing

Compound: COc1cc2c(c3oc4cccc(O)c4c(=O)c13)[C@@H]1C=CO[C@@H]1O2 [sterigmatocystin]
- Survival [no. viable bacteria (treated)/no. viable bacteria (control) x 100] [1]: 0- 3
- viability (in vitro): 0.5%
